We go through 1 substance from article PMC6706418, “Systemically Administered Plant Recombinant Holo-Intrinsic Factor Targets the Liver and is not Affected by Endogenous B12 levels” (Scientific Reports, 2019).

This assay concerns the target T1, human gastric Intrinsic factor (IF; hrIF) (Homo sapiens, UniProt P27352).
T1 construct: gene CBLIF; recombinant apo-IF expressed in Arabidopsis thaliana (Xeragenx LLC); secreted glycoprotein ~50 kDa with plant glycosylation
Nature of the assay: radiometric chase assay with […]-B12. The class given is binding. The following applies: competition against 57Co-B12; B12-desferrioxamine conjugate chelated to cold 91Zr (pH 7-7.5).

T1 sequence (P27352 19-417): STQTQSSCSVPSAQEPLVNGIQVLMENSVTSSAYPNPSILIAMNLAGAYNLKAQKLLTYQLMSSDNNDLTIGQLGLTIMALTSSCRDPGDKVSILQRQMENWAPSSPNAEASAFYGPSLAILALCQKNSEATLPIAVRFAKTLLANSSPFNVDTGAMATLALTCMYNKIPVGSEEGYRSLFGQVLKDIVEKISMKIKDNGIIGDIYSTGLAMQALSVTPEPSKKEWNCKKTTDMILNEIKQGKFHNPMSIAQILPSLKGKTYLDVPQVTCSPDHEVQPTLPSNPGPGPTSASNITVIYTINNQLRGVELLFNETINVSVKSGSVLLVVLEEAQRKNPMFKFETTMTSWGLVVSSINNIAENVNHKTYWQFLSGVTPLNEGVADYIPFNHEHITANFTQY

[^91Zr]-B12 had a dissociation constant (Kd) of 1.57 nM.

Usually Kd stands for the equilibrium constant for the complex coming apart.
